Converted amounts (≈) assume the structure as drawn.
Experiments:
[1] = biological target: T1, Serine/threonine-protein kinase PLK4 (Homo sapiens, UniProt O00444); test: Inhibition of human N-terminal GST-tagged PLK4 (1 to 391 residues) expressed in Escherichia coli incubated for 30 mins by ELISA method
T1 sequence (O00444 whole entry): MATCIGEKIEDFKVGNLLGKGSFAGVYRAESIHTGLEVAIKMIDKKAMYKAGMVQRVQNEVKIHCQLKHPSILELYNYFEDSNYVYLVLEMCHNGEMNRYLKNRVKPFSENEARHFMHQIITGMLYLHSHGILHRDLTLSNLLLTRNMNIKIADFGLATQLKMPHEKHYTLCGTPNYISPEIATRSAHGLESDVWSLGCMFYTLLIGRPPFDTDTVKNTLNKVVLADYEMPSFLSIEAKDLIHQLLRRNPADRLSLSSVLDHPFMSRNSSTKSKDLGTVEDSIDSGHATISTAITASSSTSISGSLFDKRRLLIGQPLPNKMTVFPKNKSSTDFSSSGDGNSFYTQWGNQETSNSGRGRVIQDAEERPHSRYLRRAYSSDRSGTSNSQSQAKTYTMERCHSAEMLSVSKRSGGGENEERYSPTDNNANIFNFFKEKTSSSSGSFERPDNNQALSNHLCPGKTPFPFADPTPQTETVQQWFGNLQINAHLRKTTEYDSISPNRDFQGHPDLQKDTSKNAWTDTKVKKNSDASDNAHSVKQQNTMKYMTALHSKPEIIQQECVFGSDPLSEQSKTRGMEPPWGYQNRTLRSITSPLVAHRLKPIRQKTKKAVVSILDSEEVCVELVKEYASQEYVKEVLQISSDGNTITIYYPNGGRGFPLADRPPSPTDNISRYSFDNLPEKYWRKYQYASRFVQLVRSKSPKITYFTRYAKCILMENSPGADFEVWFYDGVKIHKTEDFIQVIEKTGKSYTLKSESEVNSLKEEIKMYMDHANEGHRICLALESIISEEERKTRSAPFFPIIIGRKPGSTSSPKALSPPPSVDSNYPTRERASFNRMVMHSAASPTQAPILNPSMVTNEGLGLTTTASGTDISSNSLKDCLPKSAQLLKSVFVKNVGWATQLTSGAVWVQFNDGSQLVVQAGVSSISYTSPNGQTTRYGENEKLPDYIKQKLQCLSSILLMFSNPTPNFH

[2] = biological target: T2, Receptor-type tyrosine-protein kinase FLT3 (Homo sapiens, UniProt P36888); test: Inhibition of FLT3 (unknown origin) by FRET-based homogeneous assay
T2 sequence (P36888 whole entry): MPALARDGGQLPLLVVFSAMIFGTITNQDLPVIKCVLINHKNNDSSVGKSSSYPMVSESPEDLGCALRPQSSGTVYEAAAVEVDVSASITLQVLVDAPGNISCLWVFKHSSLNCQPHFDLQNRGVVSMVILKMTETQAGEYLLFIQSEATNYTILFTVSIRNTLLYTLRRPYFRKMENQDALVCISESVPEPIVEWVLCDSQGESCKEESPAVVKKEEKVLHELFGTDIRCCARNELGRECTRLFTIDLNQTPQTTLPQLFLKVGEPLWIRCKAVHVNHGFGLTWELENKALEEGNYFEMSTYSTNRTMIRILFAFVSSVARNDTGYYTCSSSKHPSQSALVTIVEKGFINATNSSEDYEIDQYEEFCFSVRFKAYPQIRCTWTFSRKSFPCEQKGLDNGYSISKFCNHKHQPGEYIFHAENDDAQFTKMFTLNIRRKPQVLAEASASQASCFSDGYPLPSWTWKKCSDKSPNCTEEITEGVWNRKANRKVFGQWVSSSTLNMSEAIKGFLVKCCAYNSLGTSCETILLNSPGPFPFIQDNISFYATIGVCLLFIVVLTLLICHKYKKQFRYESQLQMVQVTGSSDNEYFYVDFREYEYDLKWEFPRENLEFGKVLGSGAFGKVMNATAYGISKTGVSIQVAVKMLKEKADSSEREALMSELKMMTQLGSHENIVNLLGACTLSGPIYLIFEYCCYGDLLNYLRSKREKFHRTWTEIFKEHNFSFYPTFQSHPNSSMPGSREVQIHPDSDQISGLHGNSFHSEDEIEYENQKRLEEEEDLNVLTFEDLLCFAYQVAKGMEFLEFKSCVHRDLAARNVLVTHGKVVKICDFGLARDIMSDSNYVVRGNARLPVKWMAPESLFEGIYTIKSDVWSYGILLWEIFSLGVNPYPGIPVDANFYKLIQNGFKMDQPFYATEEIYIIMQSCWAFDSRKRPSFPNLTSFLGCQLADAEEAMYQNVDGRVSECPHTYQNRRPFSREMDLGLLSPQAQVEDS

[3] = biological target: T3, CYP1A2 (Homo sapiens, UniProt P05177); test: (§1) Inhibition of CYP1A2 (unknown origin) using CEC substrate after 15 mins by fluorescence assay; assay type: ADME; details: probe CEC
T3 sequence (P05177 whole entry): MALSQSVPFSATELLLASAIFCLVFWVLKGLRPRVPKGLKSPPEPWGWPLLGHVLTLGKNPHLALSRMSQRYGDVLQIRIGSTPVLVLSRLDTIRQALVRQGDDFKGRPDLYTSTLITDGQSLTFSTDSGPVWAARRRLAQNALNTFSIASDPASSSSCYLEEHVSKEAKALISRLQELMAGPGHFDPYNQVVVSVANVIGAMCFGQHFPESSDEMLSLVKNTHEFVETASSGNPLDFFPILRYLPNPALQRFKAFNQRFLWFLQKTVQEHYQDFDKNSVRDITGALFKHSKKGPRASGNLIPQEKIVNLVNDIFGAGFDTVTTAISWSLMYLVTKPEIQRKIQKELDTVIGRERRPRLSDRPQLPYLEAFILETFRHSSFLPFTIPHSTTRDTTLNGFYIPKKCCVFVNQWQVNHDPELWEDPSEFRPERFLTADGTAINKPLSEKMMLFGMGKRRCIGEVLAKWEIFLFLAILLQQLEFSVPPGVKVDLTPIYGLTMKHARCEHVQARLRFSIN

[4] = biological target: Cytochrome P450 2C9 (Homo sapiens, UniProt P11712); test: Inhibition of CYP2C9 (unknown origin) using MFC substrate after 45 mins by fluorescence assay; assay type: ADME
Cytochrome P450 2C9, sequence (P11712 whole entry): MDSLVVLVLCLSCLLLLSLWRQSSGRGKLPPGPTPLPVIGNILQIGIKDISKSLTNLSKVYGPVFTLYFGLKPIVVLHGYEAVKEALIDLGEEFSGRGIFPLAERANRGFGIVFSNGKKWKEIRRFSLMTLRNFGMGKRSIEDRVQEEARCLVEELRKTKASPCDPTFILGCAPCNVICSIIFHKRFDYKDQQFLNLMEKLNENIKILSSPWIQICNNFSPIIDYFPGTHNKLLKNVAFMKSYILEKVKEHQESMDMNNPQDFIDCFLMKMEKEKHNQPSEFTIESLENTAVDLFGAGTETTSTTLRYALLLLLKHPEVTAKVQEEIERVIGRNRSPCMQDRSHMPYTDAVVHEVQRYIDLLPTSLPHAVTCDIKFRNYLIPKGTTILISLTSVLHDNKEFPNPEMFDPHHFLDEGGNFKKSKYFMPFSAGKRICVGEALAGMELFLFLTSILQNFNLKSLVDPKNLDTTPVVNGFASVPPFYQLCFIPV

[5] = biological target: Cytochrome P450 3A4 (Homo sapiens, UniProt P08684); test: Inhibition of CYP3A4 (unknown origin) using BFC substrate after 30 mins by fluorescence assay; assay type: ADME
Cytochrome P450 3A4, sequence (P08684 whole entry): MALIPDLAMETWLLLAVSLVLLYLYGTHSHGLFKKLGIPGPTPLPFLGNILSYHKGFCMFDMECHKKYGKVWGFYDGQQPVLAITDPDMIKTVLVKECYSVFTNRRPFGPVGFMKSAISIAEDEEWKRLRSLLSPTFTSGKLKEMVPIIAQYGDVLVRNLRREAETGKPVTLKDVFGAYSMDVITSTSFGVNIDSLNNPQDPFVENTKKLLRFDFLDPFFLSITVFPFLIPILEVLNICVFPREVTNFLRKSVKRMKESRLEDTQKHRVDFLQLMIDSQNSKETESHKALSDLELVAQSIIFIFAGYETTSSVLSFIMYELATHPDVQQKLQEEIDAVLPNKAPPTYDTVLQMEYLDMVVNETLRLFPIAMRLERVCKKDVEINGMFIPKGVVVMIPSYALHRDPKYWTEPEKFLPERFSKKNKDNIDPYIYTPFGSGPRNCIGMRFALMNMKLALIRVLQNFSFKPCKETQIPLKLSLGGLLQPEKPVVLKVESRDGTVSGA

[6] = system: MCF7; test: Cytotoxicity against human MCF7 cells after 5 days by SRB assay; assay type: functional; details: MCF7, 120 h
[7] = system: MDA-MB-468; test: Cytotoxicity against human MDA-MB-468 cells after 5 days by SRB assay; assay type: functional; details: MDA-MB-468, 120 h
[8] = Aqueous solubility at pH 7.4; assay type: physicochemical; details: buffer
[9] = Protein binding in plasma (unknown origin); assay type: ADME, cell-free; details: read-out: PPB (converted)
[10] = Half life in mouse liver microsomes at 1 uM in presence of NADPH by LC-MS method; assay type: ADME
[11] = Half life in human liver microsomes at 1 uM in presence of NADPH by LC-MS method; assay type: ADME
[12] = Cmax in SCID mouse at 50 mg/kg, ip after 8 hrs by LCMS/MS method; assay type: ADME, organism-based; set-up: dose 50 mg/kg, route intraperitoneal; details: in vivo
[13] = AUC in SCID mouse at 50 mg/kg, ip after 8 hrs by LCMS/MS method; assay type: ADME, organism-based; set-up: time < 8 hr, dose 50 mg/kg, route intraperitoneal; details: plasma
[14] = biological target: Vascular endothelial growth factor receptor 2 (Homo sapiens, UniProt P35968); test: Inhibition of KDR (unknown origin) by FRET-based homogeneous assay
Vascular endothelial growth factor receptor 2, sequence (P35968 whole entry): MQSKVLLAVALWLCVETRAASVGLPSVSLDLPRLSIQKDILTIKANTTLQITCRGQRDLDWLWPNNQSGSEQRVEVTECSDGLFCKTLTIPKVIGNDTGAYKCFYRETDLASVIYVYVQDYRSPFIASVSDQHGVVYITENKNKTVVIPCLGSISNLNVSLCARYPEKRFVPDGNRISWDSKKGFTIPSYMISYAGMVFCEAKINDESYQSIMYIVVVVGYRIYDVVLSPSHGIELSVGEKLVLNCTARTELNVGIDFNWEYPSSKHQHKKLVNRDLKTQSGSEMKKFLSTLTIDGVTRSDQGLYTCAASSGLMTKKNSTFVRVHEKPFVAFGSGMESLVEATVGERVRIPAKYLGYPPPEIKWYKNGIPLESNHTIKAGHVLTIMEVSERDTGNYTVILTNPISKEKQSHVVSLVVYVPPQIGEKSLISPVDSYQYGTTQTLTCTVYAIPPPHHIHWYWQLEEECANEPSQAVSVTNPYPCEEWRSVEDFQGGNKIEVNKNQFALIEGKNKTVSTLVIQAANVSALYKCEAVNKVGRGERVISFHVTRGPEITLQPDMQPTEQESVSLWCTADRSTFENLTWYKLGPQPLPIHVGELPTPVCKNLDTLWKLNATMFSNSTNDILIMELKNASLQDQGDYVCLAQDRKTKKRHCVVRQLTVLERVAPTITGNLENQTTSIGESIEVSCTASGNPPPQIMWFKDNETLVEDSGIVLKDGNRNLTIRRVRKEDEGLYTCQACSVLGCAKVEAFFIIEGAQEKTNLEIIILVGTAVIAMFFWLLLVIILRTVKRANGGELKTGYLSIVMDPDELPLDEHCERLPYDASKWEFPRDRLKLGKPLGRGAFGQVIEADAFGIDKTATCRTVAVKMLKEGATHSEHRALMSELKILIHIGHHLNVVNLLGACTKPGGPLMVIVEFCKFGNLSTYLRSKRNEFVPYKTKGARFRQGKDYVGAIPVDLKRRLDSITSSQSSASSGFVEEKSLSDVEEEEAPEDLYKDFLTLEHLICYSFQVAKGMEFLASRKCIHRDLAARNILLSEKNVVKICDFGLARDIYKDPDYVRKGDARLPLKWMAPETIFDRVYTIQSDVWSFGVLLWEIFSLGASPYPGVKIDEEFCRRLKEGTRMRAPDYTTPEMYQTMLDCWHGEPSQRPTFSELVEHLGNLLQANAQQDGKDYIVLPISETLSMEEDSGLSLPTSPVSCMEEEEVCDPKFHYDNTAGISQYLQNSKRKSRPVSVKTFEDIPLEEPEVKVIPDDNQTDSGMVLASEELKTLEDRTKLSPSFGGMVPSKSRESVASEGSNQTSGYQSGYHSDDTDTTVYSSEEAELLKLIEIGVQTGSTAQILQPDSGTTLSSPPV

[15] = biological target: T4, Cytochrome P450 1A2 (Homo sapiens, UniProt P05177); test: as §1; assay type: ADME
T4 sequence (P05177 whole entry): T3 sequence (P05177 whole entry)

[16] = biological target: Cytochrome P450 2C19 (Homo sapiens, UniProt P33261); test: Inhibition of CYP2C19 (unknown origin) using MFC substrate after 30 mins by fluorescence assay; assay type: ADME
Cytochrome P450 2C19, sequence (P33261 whole entry): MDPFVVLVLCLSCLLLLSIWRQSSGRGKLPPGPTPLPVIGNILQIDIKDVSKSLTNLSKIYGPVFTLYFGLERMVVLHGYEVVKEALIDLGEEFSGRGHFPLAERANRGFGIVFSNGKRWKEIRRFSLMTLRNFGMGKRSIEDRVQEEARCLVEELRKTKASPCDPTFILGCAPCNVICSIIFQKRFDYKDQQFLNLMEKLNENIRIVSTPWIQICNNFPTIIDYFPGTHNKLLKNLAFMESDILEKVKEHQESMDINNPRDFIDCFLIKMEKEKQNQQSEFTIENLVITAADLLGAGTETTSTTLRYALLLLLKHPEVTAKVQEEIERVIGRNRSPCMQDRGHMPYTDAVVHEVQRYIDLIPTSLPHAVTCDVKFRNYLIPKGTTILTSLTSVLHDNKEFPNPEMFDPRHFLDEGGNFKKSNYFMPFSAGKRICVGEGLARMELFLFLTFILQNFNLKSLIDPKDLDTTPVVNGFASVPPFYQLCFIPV

[17] = biological target: Cytochrome P450 2D6 (Homo sapiens, UniProt P10635); test: Inhibition of CYP2D6 (unknown origin) using AMMC substrate after 45 mins by fluorescence assay; assay type: ADME
Cytochrome P450 2D6, sequence (P10635 whole entry): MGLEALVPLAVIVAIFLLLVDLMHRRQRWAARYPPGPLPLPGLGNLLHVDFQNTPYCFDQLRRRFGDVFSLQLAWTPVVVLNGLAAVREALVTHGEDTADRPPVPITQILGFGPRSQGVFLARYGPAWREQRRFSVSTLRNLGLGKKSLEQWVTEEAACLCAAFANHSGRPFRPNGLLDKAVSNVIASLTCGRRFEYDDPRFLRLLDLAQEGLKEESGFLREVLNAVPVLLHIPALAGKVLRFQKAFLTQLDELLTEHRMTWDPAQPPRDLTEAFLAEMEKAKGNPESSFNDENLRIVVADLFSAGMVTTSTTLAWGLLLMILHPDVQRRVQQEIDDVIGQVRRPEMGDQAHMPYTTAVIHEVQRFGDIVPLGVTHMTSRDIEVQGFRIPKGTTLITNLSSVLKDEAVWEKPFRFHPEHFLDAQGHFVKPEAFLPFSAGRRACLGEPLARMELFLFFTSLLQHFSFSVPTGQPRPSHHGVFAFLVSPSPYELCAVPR

[18] = system: MDA-MB-231; test: Cytotoxicity against human MDA-MB-231 cells after 5 days by SRB assay; assay type: functional; details: MDA-MB-231, 120 h
[19] = Cytotoxicity against human SKBR3 cells after 5 days by SRB assay; assay type: functional; details: SK-BR-3, 120 h
[20] = Cmax in SCID mouse at 25 mg/kg, po by LCMS/MS method; assay type: ADME, organism-based; set-up: dose 25 mg/kg, route oral; details: in vivo
[21] = AUC in SCID mouse at 25 mg/kg, po by LCMS/MS method; assay type: ADME, organism-based; set-up: dose 25 mg/kg, route oral; details: plasma
[22] = system: Mus musculus; test: Toxicity in human MDA-MB-468 cells xenografted mouse assessed as reduction in body weight at 25 mg/kg, po QD for 21 days; assay type: organism-based; set-up: dose 25 mg/kg, route oral; details: in vivo, 504 h
[23] = biological target: Serine/threonine-protein kinase PLK1 (Homo sapiens, UniProt P53350); test: Inhibition of PLK1 (unknown origin) by FRET-based homogeneous assay
Serine/threonine-protein kinase PLK1, sequence (P53350 whole entry): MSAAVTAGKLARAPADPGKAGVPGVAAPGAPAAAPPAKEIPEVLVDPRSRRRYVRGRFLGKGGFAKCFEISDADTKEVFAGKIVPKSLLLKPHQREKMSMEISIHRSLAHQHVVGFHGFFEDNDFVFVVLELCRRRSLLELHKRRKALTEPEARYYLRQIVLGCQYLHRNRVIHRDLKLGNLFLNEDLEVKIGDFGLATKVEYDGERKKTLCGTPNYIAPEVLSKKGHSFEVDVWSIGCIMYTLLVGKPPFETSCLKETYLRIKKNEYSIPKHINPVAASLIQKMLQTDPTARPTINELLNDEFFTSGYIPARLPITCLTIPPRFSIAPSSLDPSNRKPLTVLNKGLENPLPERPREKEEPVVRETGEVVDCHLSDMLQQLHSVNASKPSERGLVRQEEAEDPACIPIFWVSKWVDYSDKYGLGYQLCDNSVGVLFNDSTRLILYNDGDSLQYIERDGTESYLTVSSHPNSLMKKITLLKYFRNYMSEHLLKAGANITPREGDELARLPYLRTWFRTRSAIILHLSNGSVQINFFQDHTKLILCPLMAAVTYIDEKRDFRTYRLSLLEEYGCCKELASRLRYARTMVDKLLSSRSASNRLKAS

[24] = biological target: Serine/threonine-protein kinase PLK2 (Homo sapiens, UniProt Q9NYY3); test: Inhibition of PLK2 (unknown origin) by FRET-based homogeneous assay
[25] = biological target: Serine/threonine-protein kinase PLK3 (Homo sapiens, UniProt Q9H4B4); test: Inhibition of PLK3 (unknown origin) by FRET-based homogeneous assay
Serine/threonine-protein kinase PLK3, sequence (Q9H4B4 whole entry): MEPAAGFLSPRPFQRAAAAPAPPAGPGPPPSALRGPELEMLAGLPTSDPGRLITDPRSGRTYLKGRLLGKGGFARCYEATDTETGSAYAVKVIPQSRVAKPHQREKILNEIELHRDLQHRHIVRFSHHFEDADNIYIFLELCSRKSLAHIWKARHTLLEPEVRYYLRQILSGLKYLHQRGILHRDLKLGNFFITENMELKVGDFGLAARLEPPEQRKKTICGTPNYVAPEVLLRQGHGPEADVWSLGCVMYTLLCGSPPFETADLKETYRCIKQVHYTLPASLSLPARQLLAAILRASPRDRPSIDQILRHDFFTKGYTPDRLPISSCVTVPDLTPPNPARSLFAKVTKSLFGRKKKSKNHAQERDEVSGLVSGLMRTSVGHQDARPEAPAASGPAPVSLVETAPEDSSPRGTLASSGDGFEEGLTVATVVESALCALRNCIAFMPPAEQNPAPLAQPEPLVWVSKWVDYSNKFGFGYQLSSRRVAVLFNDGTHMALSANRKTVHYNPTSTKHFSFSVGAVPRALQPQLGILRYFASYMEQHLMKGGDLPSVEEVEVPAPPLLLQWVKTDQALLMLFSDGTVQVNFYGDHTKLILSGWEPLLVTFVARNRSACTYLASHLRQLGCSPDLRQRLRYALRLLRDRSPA

Row | IC50 [2] [µM] | IC50 [4] [µM] | IC50 [5] [µM] | solubility [8] [µg/mL] | fraction unbound [9] | half-life at 1 µM [10] [min] | half-life at 1 µM [11] [min] | Cmax [12] [ng/mL] | AUC at 8 h [13] [ng·h/mL] | IC50 [14] [µM] | IC50 [15] [µM] | IC50 [16] [µM] | IC50 [17] [µM] | Cmax [20] [ng/mL] | AUC [21] [ng·h/mL] | SMILES | GI50 [6] [µM] | GI50 [7] [µM] | GI50 [18] [µM] | GI50 [19] [µM] | other results
1 | 0.035 | 1.4 | 0.94 | < 0.1 | 0.016 | 7 | 40 | 870 | 830 | – | – | – | – | – | – | CN(C)Cc1ccc(/C=C/c2n[nH]c3cc(/C=C4/C(=O)Nc5ccccc54)ccc23)cc1 | 0.007 | 0.012 | – | – | IC50 [1]: 0.004 µM; IC50 at 15 min [3]: > 10 µM
2 | 0.019 | 0.85 | > 1 | – | – | – | – | – | – | 0.91 | > 10 | 0.75 | > 10 | 350 | 730 | COc1ccc2c(c1)[C@]1(C[C@H]1c1ccc3c(/C=C/c4ccc(CN(C)C)cc4)n[nH]c3c1)C(=O)N2 (relative stereo) | < 0.001 | 0.01 | < 0.01 | 6.4 | Activity [22]: Non-toxic
3 | 0.14 | 0.5 | 10 | 0.7 (≈ 2.68 µM) | < 0.001 | 5 | 54 | 11 | 61 | 2.5 | 0.05 | 0.21 | > 1 | – | – | O=C1Nc2ccccc2/C1=C/c1ccc2cn[nH]c2c1 | 5.3 | 4.6 | – | – | –
4 | 0.033 | 0.03 | > 1 | 0.4 (≈ 1.06 µM) | 0.045 | 18 | > 60 | 1700 | 2900 | 1.3 | 1.4 | 0.26 | 0.7 | 470 | 650 | O=C1Nc2ccccc2[C@]12C[C@H]2c1ccc2c(/C=C/c3ccncc3)n[nH]c2c1 (relative stereo) | 0.6 | 0.36 | 0.68 | 20.3 | IC50 [23]: > 100 µM; IC50 [24]: > 100 µM; IC50 [25]: > 100 µM

Source: ChEMBL document CHEMBL3351767, “The discovery of Polo-like kinase 4 inhibitors: design and optimization of spiro[cyclopropane-1,3'[3H]indol]-2'(1'H).ones as orally bioavailable antitumor agents” (J Med Chem, 2015)
